This is an account of results in patent US20110039847A1, “AMIDE DERIVATIVES AS SIRTUIN MODULATORS” (Sirtris Pharmaceuticals, Inc, priority 2007, published 2011).

The target in this test is T1, SIRT1 (Homo sapiens, UniProt Q96EB6).
T1 sequence (Q96EB6 1-747): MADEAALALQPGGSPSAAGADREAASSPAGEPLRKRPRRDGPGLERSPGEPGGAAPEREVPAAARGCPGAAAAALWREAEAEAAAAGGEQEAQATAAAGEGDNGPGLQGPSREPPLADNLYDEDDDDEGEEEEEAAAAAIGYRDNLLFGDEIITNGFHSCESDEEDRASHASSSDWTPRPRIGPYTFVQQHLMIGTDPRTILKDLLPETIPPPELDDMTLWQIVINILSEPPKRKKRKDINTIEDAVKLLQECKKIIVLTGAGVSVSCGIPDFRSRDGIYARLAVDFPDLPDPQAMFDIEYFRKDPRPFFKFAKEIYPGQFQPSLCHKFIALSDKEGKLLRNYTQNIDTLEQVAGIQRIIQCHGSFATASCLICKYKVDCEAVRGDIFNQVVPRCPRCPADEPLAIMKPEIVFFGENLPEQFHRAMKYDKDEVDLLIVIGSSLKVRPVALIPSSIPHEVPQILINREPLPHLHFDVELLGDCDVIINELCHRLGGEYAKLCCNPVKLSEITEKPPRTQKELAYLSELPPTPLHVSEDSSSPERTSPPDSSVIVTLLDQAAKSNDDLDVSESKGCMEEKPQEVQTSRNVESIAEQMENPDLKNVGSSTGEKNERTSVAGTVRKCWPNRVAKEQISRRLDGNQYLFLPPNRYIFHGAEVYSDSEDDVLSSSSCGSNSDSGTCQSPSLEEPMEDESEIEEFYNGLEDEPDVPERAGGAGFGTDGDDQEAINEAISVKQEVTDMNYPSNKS
Description: Mass spectrometry based SIRT1 deacetylation (activation) assay. In kind it is biochemical. Particulars: 0.5 μM peptide substrate, 120 μM βNAD+, 10 nM SIRT1, 25 min at 25° C.; for Emax: 25 min, read-out: % Fold Act. (percent maximum fold activation).

In the case of `CN(C)CCNc1cc(C(=O)Nc2ccccc2-c2nnc(-c3cccnc3)s2)nc(-c2ccccc2)n1` [Compound 77], the EC1.5 entry is given as “A (EC1.5≦1 uM)” and the Emax was no less than 300%.
The matching figures for `CCN(CCOC)c1cc(C(=O)Nc2ccccc2-c2ncc(C(C)(C)C)s2)nc(-c2ccccc2)c1` [Compound 84]: “A (EC1.5≦1 uM)” and 150 to 300%.
The matching figures for `O=C1CN(c2cc(C(=O)Nc3ccccc3-c3nncs3)nc(-c3ccccc3)n2)CCN1` [Compound 95]: “A (EC1.5≦1 uM)” and no less than 300%.
The corresponding values for `O=C1CN(c2cc(C(=O)Nc3ccccc3-c3nnc(N4CCOCC4)s3)nc(-c3ccccc3)n2)CCN1` [Compound 103] are “A (EC1.5≦1 uM)” and no less than 300%.
Turning to `CNCCN(C)c1cc(C(=O)Nc2ccccc2-c2nnc(-c3ccccc3)s2)nc(-c2ccccc2)c1` [Compound 44], the EC1.5 entry was “A (EC1.5≦1 uM)” and the Emax is no less than 300%.
For `CCN(CCN(C)C)c1cc(C(=O)Nc2ccccc2C(=O)NC2CCCC2)nc(-c2ccccc2)n1` [Compound 169, N-(2-(cyclopentylcarbamoyl)phenyl)-6-((2-(dimethylamino)ethyl)(ethyl)amino)-2-phenylpyrimidine-4-carboxamide], the EC1.5 result was “B (EC1.5>1 and ≦10 uM)”; the Emax is no less than 300%.
For the molecule `CN(C)CCNc1cc(C(=O)Nc2ccccc2-c2csc(-c3ccccc3)n2)nc(-c2ccccc2)n1` [Compound 12], the EC1.5 entry is “B (EC1.5>1 and ≦10 uM)”; the Emax is 150 to 300%.
On to `CNCCN(C)c1cc(C(=O)Nc2ccccc2-c2nncs2)nc(-c2ccccc2)n1` [Compound 40], for which the EC1.5 entry was “A (EC1.5≦1 uM)” and the Emax is no less than 300%.
The matching figures for `CN(C)CCNc1cc(C(=O)Nc2ccccc2C(=O)Nc2ccncc2)nc(-c2ccccc2)n1` [Compound 156, 6-(2-(dimethylamino)ethylamino)-2-phenyl-N-(2-(pyridin-4-ylcarbamoyl)phenyl)pyrimidine-4-carboxamide]: “A (EC1.5≦1 uM)” and no less than 300%.
On to `CN(C)CCNc1cc(C(=O)Nc2ccccc2-c2ncc(C(C)(C)C)o2)nc(-c2ccccc2)c1` [Compound 31], for which the EC1.5 entry was “B (EC1.5>1 and ≦10 uM)”; the Emax was no less than 300%.
Regarding `CN(C)CCNc1cc(C(=O)Nc2ccccc2C(=O)c2ccccc2)nc(-c2ccccc2)n1` [Compound 131], the EC1.5 result is “B (EC1.5>1 and ≦10 uM)”; the Emax was in the range of 150 to 300%.
Consider `CCN(CCN(C)C)c1cc(C(=O)Nc2ccccc2-c2nnc(C3CCC3)s2)nc(-c2ccccc2)n1` [Compound 51], for which the EC1.5 entry is given as “A (EC1.5≦1 uM)” and the Emax fell in the range of 150 to 300%.
On to `Cc1cnc(-c2ccccc2NC(=O)c2cc(NCCN(C)C)nc(-c3ccccc3)n2)s1` [Compound 22], for which the EC1.5 entry was “B (EC1.5>1 and ≦10 uM)”; the Emax was no less than 300%.
For the molecule `CCN(CCN(C)C)c1cc(C(=O)Nc2ccccc2-c2ncc(-c3ccccc3)o2)nc(-c2ccccc2)n1` [Compound 64], the EC1.5 entry is listed as “A (EC1.5≦1 uM)” and the Emax lay within 150 to 300%.
As to `CN(C)CCNc1cc(C(=O)Nc2ccccc2-c2cccnc2)nc(-c2ccccc2)n1` [Compound 11], the EC1.5 result was “B (EC1.5>1 and ≦10 uM)”; the Emax lay in the range of 150 to 300%.
With `Cc1csc(-c2ccccc2NC(=O)c2cc(NCCN(C)C)nc(-c3ccccc3)n2)n1` [Compound 7], the EC1.5 result was “B (EC1.5>1 and ≦10 uM)”; the Emax was no less than 300%.
`O=C(Nc1ccccc1-c1ncc(-c2ccccc2)s1)c1cc(NCCN2CCCC2)nc(-c2ccccc2)n1` [Compound 19]: the EC1.5 entry is “A (EC1.5≦1 uM)” and the Emax lay in the range of 150 to 300%.
As for `CNCCN(C)c1cc(C(=O)Nc2ccccc2-c2nnc(C3CCC3)s2)nc(-c2ccccc2)n1` [Compound 47], the EC1.5 result is recorded as “A (EC1.5≦1 uM)” and the Emax is 150 to 300%.
